From PubChem BioAssay AID328 (DTP/NCI, 2004)
Several values for one entry are separate records, joined by “and”; a condition that tells them apart may be missing. Equal values may be shown once. Inconclusive results and toxic doses are left out.

Test system: BDF1 mice, P388 leukemia ip, median survival T/C
Assay: NCI In Vivo Anticancer Drug Screen. Data for tumor model P388 Leukemia (intraperitoneal) in B6D2F1 (BDF1) mice
Settings: endpoint: median survival time, higher = longer survival
Summary of the method: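 Compound-treated tumour-bearing mice were compared with vehicle-treated controls. Survival was recorded, and the value is the treated-group measurement divided by the control-group measurement (T/C).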

[1] = dose: 200.0 mg/kg/injection, schedule: Q01DX001 (ip), vehicle: saline with Tween-80
[2] = dose: 400.0 mg/kg/injection, schedule: Q01DX001 (ip), vehicle: saline with Tween-80
[3] = dose: 12.5 mg/kg/injection, schedule: Q01DX009 (ip), vehicle: Klucel (hydroxypropylcellulose) (HPC)
[4] = dose: 25.0 mg/kg/injection, schedule: Q01DX009 (ip), vehicle: Klucel (hydroxypropylcellulose) (HPC)
[5] = dose: 50.0 mg/kg/injection, schedule: Q01DX009 (ip), vehicle: Klucel (hydroxypropylcellulose) (HPC)
[6] = dose: 100.0 mg/kg/injection, schedule: Q01DX009 (ip), vehicle: saline with Tween-80
[7] = dose: 200.0 mg/kg/injection, schedule: Q01DX009 (ip), vehicle: saline with Tween-80
[8] = dose: 200.0 mg/kg/injection, schedule: Q04DX003 (ip), vehicle: Klucel (hydroxypropylcellulose) (HPC)
[9] = dose: 400.0 mg/kg/injection, schedule: Q01DX009 (ip), vehicle: saline with Tween-80
[10] = dose: 100.0 mg/kg/injection, schedule: Q04DX003 (ip), vehicle: saline with Tween-80
[11] = dose: 200.0 mg/kg/injection, schedule: Q04DX003 (ip), vehicle: saline with Tween-80
[12] = dose: 400.0 mg/kg/injection, schedule: Q04DX003 (ip), vehicle: saline with Tween-80
[13] = dose: 100.0 mg/kg/injection, schedule: Q04DX003 (ip), vehicle: saline
[14] = dose: 200.0 mg/kg/injection, schedule: Q04DX003 (ip), vehicle: saline
[15] = dose: 50.0 mg/kg/injection, schedule: Q01DX009 (ip), vehicle: saline with Tween-80
[16] = dose: 100.0 mg/kg/injection, schedule: Q01DX009 (ip), vehicle: saline
[17] = dose: 100.0 mg/kg/injection, schedule: Q04DX003 (ip), vehicle: Klucel (hydroxypropylcellulose) (HPC)
[18] = dose: 12.5 mg/kg/injection, schedule: Q01DX010 (ip), vehicle: carboxymethylcellulose (CMC)

## ClCCN(CCCN(CCCl)c1ccccc1)c1ccccc1
dose: 100.0 mg/kg/injection, schedule: Q01DX001 (ip), vehicle: saline + alcohol
  T/C: 118 % of control
[1]
  T/C: 156 % of control
dose: 400.0 mg/kg/injection, schedule: Q01DX001 (ip), vehicle: saline + alcohol
  T/C: 151 % of control
[2]
  T/C: 166 % of control
dose: 800.0 mg/kg/injection, schedule: Q01DX001 (ip), vehicle: saline with Tween-80
  T/C: 205 % of control

## CS/C(=C\c1ccc2cc(C)ccc2[n+]1C)N1CCOCC1
dose: 1.56 mg/kg/injection, schedule: Q01DX009 (ip), vehicle: saline
  T/C: 112 % of control
dose: 3.12 mg/kg/injection, schedule: Q01DX009 (ip), vehicle: saline
  T/C: 119 % of control

## CSc1cccc(NC(=O)OCCOc2ccc(Br)cc2)c1
[3]
  T/C: 109 % of control
[4]
  T/C: 105 % of control
[5]
  T/C: 102 % of control

## ClC1=C(Cl)C2(Cl)C(Br)C(Br)C1(Cl)C2(Cl)Cl (configuration not stated)
dose: 25.0 mg/kg/injection, schedule: Q04DX003 (ip), vehicle: other
  T/C: 118 % of control
dose: 50.0 mg/kg/injection, schedule: Q04DX003 (ip), vehicle: other
  T/C: 109 % of control
[6]
  T/C: 90 % of control
dose: 100.0 mg/kg/injection, schedule: Q04DX003 (ip), vehicle: other
  T/C: 100 % of control and 104 % of control
[7]
  T/C: 100 % of control
[8]
  T/C: 90 % of control
[9]
  T/C: 110 % of control
dose: 400.0 mg/kg/injection, schedule: Q04DX003 (ip), vehicle: other
  T/C: 100 % of control

## COC(OC)c1nc(SC)[nH]c(=O)c1C
[6]
  T/C: 91 % of control
[10]
  T/C: 100 % of control
[7]
  T/C: 95 % of control
[11]
  T/C: 100 % of control
[12]
  T/C: 95 % of control

## O=C(O)c1ccc(C(=O)O)c([N+](=O)[O-])c1
dose: 50.0 mg/kg/injection, schedule: Q04DX003 (ip), vehicle: saline
  T/C: 100 % of control
[13]
  T/C: 100 % of control
[14]
  T/C: 100 % of control

## Cc1ccc2ccccc2c1NCCC(=O)O
dose: 100.0 mg/kg/injection, schedule: Q01DX001 (ip), vehicle: Klucel (hydroxypropylcellulose) (HPC)
  T/C: 103 % of control
dose: 200.0 mg/kg/injection, schedule: Q01DX001 (ip), vehicle: Klucel (hydroxypropylcellulose) (HPC)
  T/C: 96 % of control
dose: 400.0 mg/kg/injection, schedule: Q01DX001 (ip), vehicle: Klucel (hydroxypropylcellulose) (HPC)
  T/C: 100 % of control

## Cc1cc(=O)[nH]c2cc(Br)ccc12
dose: 100.0 mg/kg/injection, schedule: Q01DX001 (ip), vehicle: saline with Tween-80
  T/C: 104 % of control
[1]
  T/C: 90 % of control
[2]
  T/C: 90 % of control

## [CH3][Ga][CH3].[CH3][Ga][CH3].[CH3][Ga][CH3].[CH3][Ga][CH3].[OH3+].[OH3+].[OH3+].[OH3+]
dose: 2.5 mg/kg/injection, schedule: Q01DX009 (ip), vehicle: saline with Tween-80
  T/C: 90 % of control

## C/C(=N\N(C)C(=S)Nc1ccccc1)c1ccccn1
[15]
  T/C: 95 % of control
[6]
  T/C: 106 % of control
[7]
  T/C: 98 % of control

## Cc1cc(=O)[nH]c(N/N=C/c2ccccc2O)n1
dose: 200.0 mg/kg/injection, schedule: Q01DX010 (ip), vehicle: saline
  T/C: 90 % of control
dose: 300.0 mg/kg/injection, schedule: Q01DX010 (ip), vehicle: saline
  T/C: 95 % of control
dose: 400.0 mg/kg/injection, schedule: Q01DX010 (ip), vehicle: saline
  T/C: 95 % of control
dose: 500.0 mg/kg/injection, schedule: Q01DX010 (ip), vehicle: saline
  T/C: 95 % of control

## C[C@]12CC[C@H]3C(=CCc4cc(O)ccc43)[C@@H]1C/C(=N\O)C2=O
[16]
  T/C: 90 % of control
[17]
  T/C: 104 % of control
dose: 200.0 mg/kg/injection, schedule: Q01DX009 (ip), vehicle: saline
  T/C: 100 % of control
[8]
  T/C: 95 % of control
dose: 264.0 mg/kg/injection, schedule: Q01DX009 (ip), vehicle: saline with Tween-80
  T/C: 109 % of control
[9]
  T/C: 104 % of control
dose: 400.0 mg/kg/injection, schedule: Q01DX009 (ip), vehicle: saline
  T/C: 95 % of control
dose: 400.0 mg/kg/injection, schedule: Q04DX003 (ip), vehicle: Klucel (hydroxypropylcellulose) (HPC)
  T/C: 90 % of control
dose: 600.0 mg/kg/injection, schedule: Q01DX009 (ip), vehicle: saline with Tween-80
  T/C: 109 % of control

## CCN(CC)CC(C)OC(=O)c1ccc(N)cc1 (configuration not stated)
dose: 33.0 mg/kg/injection, schedule: Q01DX009 (ip), vehicle: saline
  T/C: 92 % of control
dose: 50.0 mg/kg/injection, schedule: Q01DX009 (ip), vehicle: saline
  T/C: 100 % of control
dose: 75.0 mg/kg/injection, schedule: Q01DX009 (ip), vehicle: saline
  T/C: 104 % of control
[16]
  T/C: 100 % of control
[13]
  T/C: 95 % of control
[14]
  T/C: 86 % of control

## COc1cc([C@@H]2c3cc4c(cc3[C@H](OC3OC5COC(c6ccccc6)OC5C(O)C3O)[C@H]3COC(=O)[C@H]23)OCO4)cc(OC)c1OC (some centres not stated)
dose: 3.1 mg/kg/injection, schedule: Q01DX010 (ip), vehicle: carboxymethylcellulose (CMC)
  T/C: 180 % of control
dose: 6.2 mg/kg/injection, schedule: Q01DX010 (ip), vehicle: carboxymethylcellulose (CMC)
  T/C: 210 % of control
[18]
  T/C: 235 % of control
dose: 25.0 mg/kg/injection, schedule: Q01DX010 (ip), vehicle: carboxymethylcellulose (CMC)
  T/C: 270 % of control
dose: 50.0 mg/kg/injection, schedule: Q01DX010 (ip), vehicle: carboxymethylcellulose (CMC)
  T/C: 300 % of control

## Nc1ccc(OS(=O)(=O)c2ccccc2)cc1
[15]
  T/C: 98 % of control
[6]
  T/C: 108 % of control
[7]
  T/C: 100 % of control
[9]
  T/C: 90 % of control

## CCOC(=O)C(NC(=O)C(Cc1ccc(N(CCCl)CCCl)cc1)NC(C)=O)C(C)C (configuration not stated)
dose: 5.0 mg/kg/injection, schedule: Q04DX003 (ip), vehicle: other
  T/C: 118 % of control
dose: 10.0 mg/kg/injection, schedule: Q04DX003 (ip), vehicle: other
  T/C: 118 % of control
dose: 40.0 mg/kg/injection, schedule: Q04DX003 (ip), vehicle: other
  T/C: 151 % of control
dose: 66.0 mg/kg/injection, schedule: Q04DX003 (ip), vehicle: saline with Tween-80
  T/C: 168 % of control
[10]
  T/C: 186 % of control
dose: 150.0 mg/kg/injection, schedule: Q04DX003 (ip), vehicle: saline with Tween-80
  T/C: 245 % of control

## CC(=O)[C@H]1CC[C@H]2[C@@H]3C[C@H](C)C4=CC(=O)CC[C@]4(C)[C@H]3[C@@H](O)C[C@]12C
[10]
  T/C: 107 % of control
[11]
  T/C: 100 % of control

## CCCCCCCCCCCCCCCC(=O)N(c1ccc(NC(=O)Nc2ccc(N(C(=O)CCCCCCCCCCCCCCC)C(C)CCCN(CC)CC)cc2)cc1)C(C)CCCN(CC)CC (configuration not stated)
dose: 12.5 mg/kg/injection, schedule: Q01DX009 (ip), vehicle: saline with Tween-80
  T/C: 94 % of control
dose: 25.0 mg/kg/injection, schedule: Q01DX009 (ip), vehicle: saline with Tween-80
  T/C: 87 % of control
[15]
  T/C: 97 % of control
[10]
  T/C: 93 % of control
[11]
  T/C: 99 % of control
[12]
  T/C: 102 % of control

## CC(C)C(Sc1nc(N)nc2nc[nH]c12)C(=O)O (configuration not stated)
dose: 100.0 mg/kg/injection, schedule: Q04DX003 (ip), vehicle: saline sonified
  T/C: 110 % of control
dose: 200.0 mg/kg/injection, schedule: Q04DX003 (ip), vehicle: saline sonified
  T/C: 120 % of control
dose: 400.0 mg/kg/injection, schedule: Q04DX003 (ip), vehicle: saline sonified
  T/C: 105 % of control

## CC(C)Sc1nc(N)nc2nc[nH]c12
dose: 6.25 mg/kg/injection, schedule: Q01DX009 (ip), vehicle: Klucel (hydroxypropylcellulose) (HPC)
  T/C: 100 % of control
[3]
  T/C: 105 % of control
[4]
  T/C: 100 % of control
[5]
  T/C: 100 % of control
[17]
  T/C: 105 % of control
[8]
  T/C: 105 % of control

## c1ccc(OCCC[P+](c2ccccc2)(c2ccccc2)c2ccccc2)cc1
dose: 0.78 mg/kg/injection, schedule: Q01DX010 (ip), vehicle: saline
  T/C: 90 % of control
dose: 1.56 mg/kg/injection, schedule: Q01DX010 (ip), vehicle: saline
  T/C: 100 % of control
dose: 3.13 mg/kg/injection, schedule: Q01DX010 (ip), vehicle: saline
  T/C: 109 % of control
dose: 6.25 mg/kg/injection, schedule: Q01DX010 (ip), vehicle: saline
  T/C: 118 % of control
[18]
  T/C: 100 % of control
